One assay deals with T1, purified human ERO1α (Homo sapiens, UniProt Q96HE7, C104A/C131A/C166A).
T1 construct: made in house
T1 sequence (Q96HE7 22-468 C104A/C131A/C166A): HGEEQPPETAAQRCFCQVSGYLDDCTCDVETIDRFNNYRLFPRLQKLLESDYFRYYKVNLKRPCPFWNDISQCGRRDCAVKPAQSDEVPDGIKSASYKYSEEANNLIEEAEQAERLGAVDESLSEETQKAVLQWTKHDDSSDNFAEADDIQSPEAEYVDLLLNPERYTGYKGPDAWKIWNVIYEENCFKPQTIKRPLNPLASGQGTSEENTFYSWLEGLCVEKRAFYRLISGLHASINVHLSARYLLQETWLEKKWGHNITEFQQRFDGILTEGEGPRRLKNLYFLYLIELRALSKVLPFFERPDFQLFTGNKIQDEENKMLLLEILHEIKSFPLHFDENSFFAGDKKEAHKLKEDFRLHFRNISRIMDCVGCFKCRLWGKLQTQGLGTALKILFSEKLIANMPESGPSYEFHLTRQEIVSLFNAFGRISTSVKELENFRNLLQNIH
The assay can be described thus: Recombinant ERO1α enzyme assay (Amplex Red). It is filed as biochemical. The conditions noted are these: for inhibition at 10 µM: average of N = 3 ± S.D., read-out: % inhibition (10 μM) of ERO1α enzyme activity compared to vehicle control. How it is done:
Based on previous work which established an aurone chemical class of compounds as FAD containing enzyme inhibitors^37, we evaluated sulfuretin analogs for ERO1α enzyme inhibition.
Quantification of enzymatic activity of ERO1α was performed using the Amplex Red as previously described^6.

The test system of assay [1] is PC-9 non-small cell lung cancer cell line. The assay can be described thus: MTT viability assay, PC-9. It is filed as cell-based. The settings on record: 72 h, read-out: IC50, MTT assay, PC-9. On the procedure:
(§1) We utilized an MTT assay to determine the potency of the compounds for inhibiting cell growth. […] We next asked whether T151742 induced inhibition of cell growth was dependent on ERO1α expression. As shown in FIG. 6C two ERO1α deleted clones in the PC-9 cell line were isolated. Using an MTT assay to determine overall cellar viability, a non-targeted control (scramble), and both ERO1α knockout clones was subjected to treatment with T151742 for 72 hours (See FIG. 6D). […] Though only slight differences were observed between T151742 and EN-460 we tested the effects of these compounds in a clonogenic assay which is a better test for inhibition of self-renewal.
Cell Lines: PC-9 cell line used was obtained from Sigma Aldrich and grown in RPMI 1640 medium with 10% fetal bovine serum and 1% penicillin/streptomycin. HCC4006, U266, MM1.s, and Beas-2B cell lines were obtained from ATCC and cultured in either RPMI 1640 or DMEM with 10% fetal bovine serum and 1% penicillin/streptomycin. All cell lines were also checked for mycoplasma every six months and subjected to short tandem repeat (STR) analysis for cell line validation. CRISPR Cas9: CRISPR Guide RNA 2 targeting ERO1α and CRISPR Guide RNA 4 were purchased from Genscript in the pLentiCRISPR V2 plasmid containing puromycin/ampicillin selection marker. Lentivirus was made from HEK 293T cells by co-transfection with GuideRNA of interest, pVSVG, and pPAX2 plasmids. Lentivirus was collected after 48 hours and concentrated using 40% PEG8000. […] Plate was then read on the BioTek Cytation 5 at 530/590 nm. […] Plate was then read at 570 nm. Treated wells were all compared to DMSO control wells to calculate percent growth inhibition and the IC50 was calculated using GraphPad (log(inhibitor) vs growth inhibition). […] Images were then quantified using ImageJ. […] Cells were aliquoted at 1 million cells per PCR tube in PBS and heated in Bio-Rad T100 thermal cycler at indicated temperatures (RT, 46° C., 48° C., 50° C., 52° C., 54° C., 56°, 58° C., and 60° C.) for 3 minutes and aggregation temperature was determined by western blot analysis. […]

The target of the next assay is LSD-1 (Homo sapiens, UniProt O60341). The settings on record: cited from earlier work.
Another assay has as its target T2, MAO-B (Homo sapiens, UniProt P27338).
T2 sequence (P27338 1-520): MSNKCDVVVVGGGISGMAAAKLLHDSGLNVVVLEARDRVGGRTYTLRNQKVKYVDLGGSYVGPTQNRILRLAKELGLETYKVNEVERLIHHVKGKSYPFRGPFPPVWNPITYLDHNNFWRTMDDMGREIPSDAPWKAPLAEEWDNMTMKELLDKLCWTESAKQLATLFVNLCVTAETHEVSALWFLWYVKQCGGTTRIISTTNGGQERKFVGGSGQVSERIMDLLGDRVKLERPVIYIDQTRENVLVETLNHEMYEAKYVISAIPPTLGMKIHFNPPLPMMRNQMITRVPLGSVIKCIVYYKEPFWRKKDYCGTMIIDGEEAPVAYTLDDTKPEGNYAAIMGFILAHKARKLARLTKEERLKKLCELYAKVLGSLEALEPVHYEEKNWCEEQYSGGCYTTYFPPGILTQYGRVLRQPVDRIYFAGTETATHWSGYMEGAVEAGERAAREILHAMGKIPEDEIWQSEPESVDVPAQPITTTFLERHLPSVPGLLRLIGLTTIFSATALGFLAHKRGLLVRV
The conditions noted are these: cited from earlier work.

Another assay concerns PC-9 cells. The assay can be described thus: Soft agar clonogenic assay, PC-9. It is filed as cell-based. The conditions noted are these: 14 days, 3.75-15 μM. On the procedure: as §1
FIG. 7A and FIG. 7B show 1000 cells/well were plated in a 12-well plate in triplicate with either 0.5% DMSO, T151742, or EN-460 and allowed to form colonies for 14 days. Colonies were subsequently stained with 0.01% Crystal Violet, imaged, and quantified using ImageJ. […] Colonies were stained with 0.01% Crystal Violet, imaged, and quantified using ImageJ.
Cell Lines: PC-9 cell line used was obtained from Sigma Aldrich and grown in RPMI 1640 medium with 10% fetal bovine serum and 1% penicillin/streptomycin. […] Plate was then read on the BioTek Cytation 5 at 530/590 nm. […] Plate was then read at 570 nm. […] Images were then quantified using ImageJ. […]

The target in another assay is T3, MAO-A (Homo sapiens, UniProt P21397).
T3 sequence (P21397 1-527): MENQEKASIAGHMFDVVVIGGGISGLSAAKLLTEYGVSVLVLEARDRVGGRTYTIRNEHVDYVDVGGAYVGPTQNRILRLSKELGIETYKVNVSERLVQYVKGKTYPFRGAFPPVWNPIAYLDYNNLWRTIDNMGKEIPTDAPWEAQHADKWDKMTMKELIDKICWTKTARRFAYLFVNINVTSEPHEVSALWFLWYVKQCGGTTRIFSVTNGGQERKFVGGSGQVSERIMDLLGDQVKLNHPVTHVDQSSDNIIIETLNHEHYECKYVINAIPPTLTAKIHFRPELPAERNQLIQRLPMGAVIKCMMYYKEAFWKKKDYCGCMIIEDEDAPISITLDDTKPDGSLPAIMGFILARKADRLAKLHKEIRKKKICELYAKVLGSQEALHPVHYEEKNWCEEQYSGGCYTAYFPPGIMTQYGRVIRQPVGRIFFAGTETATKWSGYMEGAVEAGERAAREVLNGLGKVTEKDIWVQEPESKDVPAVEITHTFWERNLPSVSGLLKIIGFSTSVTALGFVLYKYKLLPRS
The settings on record: cited from earlier work.

In the case of `O=C1/C(=C/c2c(F)cccc2Cl)Oc2cc(O)ccc21` [SR-F-125], at purified human ERO1α, the inhibition at 10 µM amounted to 20.7 ± 4.92%. `N[C@@H]1C[C@H]1c1ccccc1` (racemic) [tranylcypromine, reference compound]: the “inhibition of ERO1α activity (concentration response, FIG. 8)” value on purified human ERO1α (covalent modifiers of FAD) is on record as “did not inhibit”. Take `O=C1/C(=C/c2ccc(-c3ccccc3)cc2)Oc2cc(O)ccc21` [SR-F-126]: the inhibition at 10 µM on purified human ERO1α was determined as 38.7 ± 1.56%. Regarding `O=C(O)c1ccc(/C=C2\Oc3cc(O)ccc3C2=O)cc1` [SR-F-114], in assay [1], the 50% inhibitory concentration (IC50) came to 32.4 ± 6.01 µM. In the case of `O=C(O)c1cc(N2N=C(C(F)(F)F)/C(=C/c3ccc(-c4ccccc4)o3)C2=O)ccc1Cl` [EN-460, reference compound], at LSD-1, the “inhibition of LSD-1” value is “inhibits”. For the same compound, the “inhibition of / activity against MAO-B” value on MAO-B is reported as “inhibits”. The “activity in clonogenicity assay (colony number)” value in the assay on PC-9 cells was “devoid of activity”. Moreover, the IC50 on purified human ERO1α (purified human ERO1α 0.0625 mg/mL, PDI 0.0625 mg/mL, mean ± S.D., N=3) was found to be 16.5 ± 3.47 µM. Further, the “inhibition of / activity against MAO-A” value on MAO-A was “inhibits”.

The values above are taken from patent publication US20250064773A1, “TARGETING ERO1 ALPHA WITH AURONE DERIVATIVES” (West Virginia University Board of Governors on behalf of …, priority 2021, published 2025).
